# Assays:
# [1] = molecular target: T1, ER(α) (estrogen receptor α) (Homo sapiens, UniProt P03372); assay: Binding to estrogen receptor, fluorescence polarization competition (FP Screen-for-Competitors kit, ER-α) (Example 7); settings: concentration inhibiting 50% of the binding of the ES1-ER(α) complex by competing with ES1; 1 hour at room temperature
# T1 construct: purchased PanVera V2577
# T1 sequence (P03372 1-595): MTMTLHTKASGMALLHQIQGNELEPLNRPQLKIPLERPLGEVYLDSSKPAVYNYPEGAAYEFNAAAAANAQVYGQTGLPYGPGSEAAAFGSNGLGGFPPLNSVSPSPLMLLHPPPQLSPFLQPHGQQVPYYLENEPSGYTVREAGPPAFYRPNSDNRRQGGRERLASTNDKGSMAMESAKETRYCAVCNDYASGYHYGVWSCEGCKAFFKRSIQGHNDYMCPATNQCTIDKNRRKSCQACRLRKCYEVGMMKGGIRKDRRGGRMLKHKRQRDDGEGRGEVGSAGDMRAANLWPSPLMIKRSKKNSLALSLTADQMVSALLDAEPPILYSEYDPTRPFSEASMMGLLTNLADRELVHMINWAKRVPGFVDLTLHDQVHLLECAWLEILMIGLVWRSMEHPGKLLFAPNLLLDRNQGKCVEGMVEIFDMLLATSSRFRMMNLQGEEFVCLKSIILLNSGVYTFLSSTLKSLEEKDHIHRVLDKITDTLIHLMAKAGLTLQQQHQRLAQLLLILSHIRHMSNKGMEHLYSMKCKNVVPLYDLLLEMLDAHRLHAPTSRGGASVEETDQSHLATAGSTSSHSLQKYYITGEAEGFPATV
# Method: Bindings of various gallic acid derivatives to estrogen receptor were tested using FP Screen-for-Competitors kit, ER-α, high sensitivity kit (V2577: PanVera). The tests were carried out basically according to the procedure as described in the manual attached to the kit. One of various gallic acid derivatives (n-octyl gallate (gallic acid n-octyl ester), n-dodecyl gallate (gallic acid n-dodecyl ester) and n-cetyl gallate (gallic acid n-hexadecyl ester)) was dissolved in DMSO and serially diluted to prepare diluted samples (0.5 M - 0.0000000005 M). 49 µL of Screening buffer attached to the kit was added to 1 µL of one of the diluted samples and stirred thoroughly. 50 µL of 10 nM-15 nM:ES1-ER(α) complex (a complex of ES1 (a fluorescent ligand that binds to ER) and ER(α) (estrogen receptor α)) attached to the kit was added thereto, resulting in the total volume of 100 µL. After allowing to stand for 1 hour at room temperature, fluorescence polarization was measured at an excitation wavelength of 360 nm and an emission wavelength of 535 nm using Full-Range BEACON 2000 (PanVera).
# female SD rat [2] = assay: Anti-estrogenic activity of n-octyl gallate or n-cetyl gallate against subcutaneously administered BisA, rat uterine weight (Example 11); assay type: in vivo; settings: for Ratio: vs control (100%)
# Method: A 17-days old female SD rat (Japan SLC) was purchased together with its mother, weaned at 20 days of age, and subjected to experiments from the next day. n-Octyl gallate or n-cetyl gallate (both from Tokyo Kasei Kogyo) was dissolved in a small volume of ethanol. Peanut oil was added thereto to result in a final ethanol concentration of 5%. The resulting mixture was orally administered to the 21-days old female SD rat for three successive days. The uterine removed on the day after the last administration day was weighed. Peanut oil containing 5% ethanol was used for a vehicle administration group. BisA was dissolved in a small volume of ethanol. Peanut oil was added thereto to result in a final ethanol concentration of 5%. The mixture was subcutaneously administered.
# female SD rat [3] = assay: Anti-estrogenic activity of solution of EGCG in ethanol against 4-nonylphenol, rat uterine weight (Example 3); assay type: in vivo; settings: NP 50 mg/kg oral alone
# Method: A 16-days old female SD rat (Japan SLC) was purchased together with its mother, weaned at 19 days of age, and subjected to experiments from the next day.
# 4-Nonylphenol (hereinafter referred to as NP) was weighed such that it would be administered at 50 mg/kg and diluted by adding peanut oil thereto. The resulting mixture was orally administered for three successive days. The uterine removed on the day after the third administration day was weighed. EGCG was dissolved by adding ethanol and water was then added thereto to adjust the final ethanol concentration to 10%. The solution was orally administered 90 minutes before the administration of NP.
# female SD rat [4] = assay: Anti-estrogenic activity of n-octyl gallate against NP, rat uterine weight (Example 10); assay type: in vivo; settings: NP 50 mg/kg oral + vehicle
# Method: (§1) A 16-days old female SD rat (Japan SLC) was purchased together with its mother, weaned at 19 days of age, and subjected to experiments from the next day. n-Octyl gallate (Tokyo Kasei Kogyo) was dissolved in a small volume of ethanol. Peanut oil was added thereto to result in a final ethanol concentration of 5%. The resulting mixture was orally administered to the 20-days old female SD rat for three successive days. The uterine removed on the day after the last administration day was weighed. Peanut oil containing 5% ethanol was used for a vehicle administration group. NP weighed such that it would be administered at 50 mg/kg was diluted by adding peanut oil. It was orally administered 1.5 hours after the administration of n-octyl gallate.
# female SD rat [5] = assay: Effect of ethanol concentration on anti-estrogenic activity of EGCG, rat uterine weight (Example 4); assay type: in vivo; settings: BisA 40 mg/kg subcutaneous alone
# Method: (§2) A 16-days old female SD rat (Japan SLC) was purchased together with its mother, weaned at 19 days of age, and subjected to experiments from the next day. BisA was weighed such that it would be administered at 40 mg/kg and dissolved in a small volume of ethanol. Peanut oil was added thereto to result in a final ethanol concentration of 5%. The resulting mixture was subcutaneously administered for three successive days. The uterine removed on the day after the third administration day was weighed. EGCG (200 mg/kg) was dissolved by adding ethanol and water was then added thereto to adjust the final ethanol concentration to 10, 5, 1, 0.5 or 0%. The solution was orally administered 90 minutes before the administration of BisA.
# female SD rat [6] = assay: Dose dependency of anti-estrogenic activity of solution of EGCG in ethanol, rat uterine weight (Example 6); assay type: in vivo; settings: for Ratio: vs control (100%)
# Method: as §2, with “subcutaneously or orally” for “subcutaneously”, “EGCG” for “EGCG (200 mg/kg)”, “10%.” for “10, 5, 1, 0.5 or 0%.”, “30” for “90”
# female SD rat [7] = assay: Antagonistic (anti-estrogenic) activity of EGCG against bisphenol-A, immature rat uterine weight (Example 1(3)); assay type: in vivo; settings: BisA 800 mg/kg oral alone
# Method: (§3) A 17-days old female SD rat (purchased from Japan SLC) was received together with its mother, weaned at 20 days of age, and subjected to experiments from the next day. Five ml per kg body weight of EGCG (Sigma) or bisphenol-A (hereinafter referred to as BisA, Tokyo Kasei Kogyo) suspended in peanut oil (Nacalai Tesque) was administered orally and forcibly. Peanut oil was administered to a control rat in a similar manner. Administration was carried out once a day for three successive days. The uterine removed 24 hours after the last administration was weighed. BisA (800 mg/kg) and EGCG (800 mg/kg) were administered at the same time.
# female SD rat [8] = assay: Anti-estrogenic activity of solution of EGCG in ethanol, subcutaneous BisA, rat uterine weight (Example 5); assay type: in vivo; settings: BisA 40 mg/kg subcutaneous alone
# Method: as §2, with “10” for “10, 5, 1, 0.5”, “30” for “90”
# female SD rat [9] = assay: Anti-estrogenic activity of n-octyl gallate against BisA, rat uterine weight (Example 9); assay type: in vivo; settings: BisA 40 mg/kg oral + vehicle
# Method: as §1, with “BisA” for “NP weighed such that it would be administered at 50 mg/kg”, “dissolved in a small volume of ethanol. Peanut oil was added thereto to result in a final ethanol concentration of 5%.” for “diluted by adding peanut oil.”
# [10] = system: human breast cancer-derived MCF-7 cells; assay: E-SCREEN assay, proliferation of cultured cells, MTT method (Example 8); assay type: cell-based; settings: BisA alone
# Method: A test for proliferation of cultured cells was carried out according to a method called the E-SCREEN assay as described in Ana M. Soto et al. (Environ. Health Perspect. 103:113-122(1995)). Briefly, 4.0 x 10^3 of human breast cancer-derived MCF-7 cells in a volume of 100 µL were seeded into each well of a 96-well plate. The plate was incubated overnight. BisA or a combination of BisA and n-octyl gallate was then added thereto. A well without the addition was used as a control. The cells were further cultured for 4 days in a medium, Dulbecco's modified Eagle medium without Phenol Red supplemented with 5% FCS treated with activated carbon-dextran. The MTT method was used to measured the cell numbers.
# female SD rat [11] = assay: Anti-estrogenic activity of solution of EGCG in ethanol against bisphenol-A, rat uterine weight (Example 2); assay type: in vivo; settings: for Uterine weight: mean ± standard error; for Ratio: vs control (100%)
# Method: A 17-days old female SD rat (purchased from Japan SLC) was received together with its mother, weaned at 20 days of age, and subjected to experiments from the next day. BisA was weighed such that it would be administered at 200 or 40 mg/kg and dissolved in a small volume of ethanol. Peanut oil was added thereto to result in a final ethanol concentration of 5%. The resulting mixture was orally administered for three successive days. The uterine removed on the next day was weighed. EGCG was dissolved by adding ethanol and water was then added thereto to adjust the final ethanol concentration to 10%. The solution was orally administered on the day before the administration of BisA and 30 minutes before each of the successive administrations of BisA.
# female SD rat [12] = assay: Agonistic (estrogenic) activity: immature rat uterine weight (Example 1(2)); assay type: in vivo; settings: substance alone
# Method: as §3, with “or EGCG (80 or 800” for “(800”, “was administered. […]” for “and EGCG (800 mg/kg) were administered at the same time.”
structure (smiles),measurement,setting,value
"CCCCCCCCCCCCCCCCOC(=O)c1cc(O)c(O)c(O)c1 [n-cetyl gallate, gallic acid n-hexadecyl ester]",IC50,[1],47.6 nM
same,Uterine weight,"female SD rat [2]; BisA 40 mg/kg subcutaneous + n-cetyl gallate 1 mg/kg oral, 3 days",45.1 ± 2.3 mg
same,Uterine weight,"female SD rat [2]; BisA 40 mg/kg subcutaneous + n-cetyl gallate 5 mg/kg oral, 3 days",43.1 ± 2.0 mg
same,Ratio,female SD rat [2]; BisA 40 mg/kg subcutaneous + n-cetyl gallate 1 mg/kg oral,109%
same,Ratio,female SD rat [2]; BisA 40 mg/kg subcutaneous + n-cetyl gallate 5 mg/kg oral,104%
"CCCCCCCCCc1ccc(O)cc1 [NP, 4-Nonylphenol, reference compound]",Uterine weight,female SD rat [3]; mean ± standard error,44.4 ± 3.2 mg
same,Ratio,female SD rat [3]; vs control (100%),144%
same,Uterine weight,female SD rat [4]; mean ± standard error,47.6 ± 2.3 mg
same,Ratio,female SD rat [4]; vs control (100%),144%
"CCCCCCCCCCCCOC(=O)c1cc(O)c(O)c(O)c1 [n-Dodecyl gallate, gallic acid n-dodecyl ester]",IC50,[1],311 nM
"CC(C)(c1ccc(O)cc1)c1ccc(O)cc1 [BisA, bisphenol-A, reference compound]",Uterine weight,female SD rat [5]; mean ± standard error,49.9 ± 2.1 mg
same,Ratio,female SD rat [5]; vs control (100%),186%
same,Uterine weight,"female SD rat [6]; BisA 40 mg/kg subcutaneous alone, mean ± standard error",52.2 ± 2.9 mg
same,Ratio,female SD rat [6]; BisA 40 mg/kg subcutaneous alone,160%
same,Ratio,"female SD rat [6]; BisA 40 mg/kg, oral, alone",140%
same,Uterine weight,female SD rat [7]; mean ± standard error,54.7 ± 5.5 mg
same,Ratio,female SD rat [7]; vs control (100%),147%
same,Uterine weight,female SD rat [8]; mean ± standard error,50.0 ± 2.7 mg
same,Ratio,female SD rat [8]; vs control (100%),162%
same,Uterine weight,female SD rat [9]; mean ± standard error,48.9 ± 2.1 mg
same,Ratio,female SD rat [9]; vs control (100%),161%
same,number of the cells proliferated relative to the control,[10]; MCF-7,1.8 fold
same,Relative rate of increase in cell number,"[10]; MCF-7, 4 days culture, control = 100",180%
same,Uterine weight,female SD rat [11]; BisA 40 mg/kg oral alone,64.5 ± 9.2 mg
same,Uterine weight,female SD rat [11]; BisA 200 mg/kg oral alone,57.7 ± 5.2 mg
same,Ratio,"female SD rat [11]; BisA 40 mg/kg, oral, alone",149%
same,Ratio,female SD rat [11]; BisA 200 mg/kg oral alone,133%
same,Uterine weight,"female SD rat [12]; 800 mg/kg oral in peanut oil, once a day for 3 days, mean ± standard error",55.2 ± 2.3 mg
same,Ratio,"female SD rat [12]; uterine weight vs control group (100%), 800 mg/kg oral, 3 days",137%
same,Uterine weight,"female SD rat [2]; BisA 40 mg/kg subcutaneous + vehicle, mean ± standard error",59.7 ± 2.7 mg
same,Ratio,female SD rat [2]; BisA 40 mg/kg subcutaneous + vehicle,145%

# Source: EP1232756A1, “DRUGS, DRINKS OR FOODS” (Takara Shuzo Co, Ltd., priority 1999, dated 2001)
